{"source": "patent US11903955B2", "about": "“Methods of treating heart failure with reduced ejection fraction” (ASTRAZENECA AB, priority 2019, dated 2024)", "tested_on": "patients with chronic heart failure with reduced ejection fraction (LVEF ≤40%)", "settings": "for Cardiovascular death or hospitalization for heart failure, Hazard Ratio (95% CI) / Cardiovascular death, Hazard Ratio (95% CI) / Death from any cause, Hazard Ratio (95% CI) / Hospitalization for heart failure or an urgent heart failure visit, Hazard Ratio (95% CI) / Hospitalization for heart failure, Hazard Ratio (95% CI) / Primary composite outcome, Hazard Ratio (95% CI) / Urgent heart failure visit, Hazard Ratio (95% CI) / Worsening renal function (composite), Hazard Ratio (95% CI) / Total number of (first and recurrent) heart failure hospitalizations and cardiovascular death, rate ratio (95% CI) / HR (95% CI) for primary outcome of CV death or worsening HF: dapagliflozin vs placebo; for Total number of (first and recurrent) heart failure hospitalizations and cardiovascular death, rate ratio (95% CI): LWYY method", "text": "Eligibility requirements included an age of at least 18 years, New York Heart Association (NYHA) class II, III, or IV symptoms, and an ejection fraction of 40% or less. […] Patients with atrial fibrillation or atrial flutter on their baseline electrocardiogram were required to have a NT-proBNP level of at least 900 pg/mL, irrespective of history of heart failure hospitalization. Patients were required to receive standard drug and device therapy for heart failure including an angiotensin-converting enzyme (ACE) inhibitor, angiotensin receptor blocker (ARB), or sacubitril/valsartan; a beta-blocker, unless contraindicated or not tolerated, and a mineralocorticoid receptor (MR) […], if considered appropriate. Doses were required to be individually optimized, in accordance with the targets recommended in guidelines, and stable for at least 4 weeks (excepting diuretics, which could be dosed flexibly). Investigators were advised that patients with type 2 diabetes should continue to take their glucose-lowering therapies, but these could be adjusted as required. Specifically, the protocol stated that the dose of insulin, sulfonylurea treatment, or both, could be reduced to minimize the risk of hypoglycemia, for example in patients with a baseline hemoglobin A1C (HbA1c) level below 7%.\nAll the patients provided written informed consent and entered a 14-day enrollment period during which the trial inclusion and exclusion criteria were checked and baseline information gathered, including findings from clinical examination and laboratory measurements. […] Investigators used an interactive voice or web response system to obtain treatment assignment. Randomization was stratified based on a diagnosis of type 2 diabetes, defined as either an established diagnosis or a HbA1c level of 6.5% or greater (≥48 mmol/mol) confirmed in a central laboratory at screening. Patients were evaluated at 14 days and 60 days after randomization, with a focus on assessment of heart failure and volume status, adverse events, and checking renal function and potassium. Further study visits took place at 4 months and at 4-month intervals thereafter. The protocol required that study drug be permanently discontinued if pregnancy or diabetic ketoacidosis occurred.\nThe primary outcome was a composite of a first episode of worsening heart failure or death from cardiovascular causes. An episode of worsening heart failure was either an unplanned hospitalization for heart failure or an urgent heart failure visit requiring intravenous therapy.^14 The first of the secondary outcomes was the composite of heart failure hospitalization or cardiovascular death.\nOutcomes were adjudicated by a clinical-end-points committee, blinded to treatment assignment, according to prespecified criteria.\nUsing a two-sided alpha of 5%, we calculated that 844 primary endpoints would provide a statistical power of 90% for the test of the hypothesis. With an expected annual event rate of 11% in the placebo treatment group, approximately 4500 patients were estimated to provide the required number of primary events, based on an anticipated recruitment period of 18 months and an average follow-up period of approximately 24 months. A closed testing procedure was used, including a prespecified hierarchical testing of the primary and secondary endpoints in the order specified above. Type I error was controlled at a two-sided 0.0499 alpha level for multiplicity across primary and secondary endpoints and taking account of one interim efficacy analysis.\nData from all randomly assigned patients were included in the analyses of the primary and secondary outcomes, according to the intention-to-treat principle. Baseline characteristics were summarized as means and standard deviations, medians and inter-quartile ranges, or percentages.", "key": {"[1]": {"settings": "all patients (N = 2373), listed as dapagliflozin"}, "[2]": {"settings": "all patients, listed as dapagliflozin"}}, "note": "Where two headings read alike, the source gives them in different places. Marks after values point to notes of the source that are not given here.", "data": [{"smiles": "CCOc1ccc(Cc2cc([C@@H]3O[C@H](CO)[C@@H](O)[C@H](O)[C@H]3O)ccc2Cl)cc1", "note": "[Dapagliflozin, dapagliflozin]", "values": [{"measurement": "Worsening renal function (composite), No. (%)", "setting": "all patients (N = 2373)", "value": "28 (1.2) No. (%)"}, {"measurement": "Cardiovascular death or hospitalization for heart failure, No. (%)", "setting": "[1]", "value": "382 No. (%)"}, {"measurement": "Cardiovascular death, No. (%)", "setting": "[1]", "value": "227 No. (%)"}, {"measurement": "Hospitalization for heart failure, No. (%)", "setting": "[1]", "value": "231 (9.7%) No. (%)"}, {"measurement": "Primary composite outcome (urgent heart failure visit, hospitalization for heart failure or cardiovascular death), No. (%)", "setting": "all patients, 10 mg once daily (N = 2373), median follow-up 18.2 months", "value": "386 (16.3) No. (%)"}, {"measurement": "hospitalizations for heart failure, total first and recurrent", "setting": "all patients, dapagliflozin arm", "value": 340}, {"measurement": "Cardiovascular death or hospitalization for heart failure, Hazard Ratio (95% CI)", "setting": "No T2DM", "value": "0.73 (0.60-0.89)"}, {"measurement": "Cardiovascular death, Hazard Ratio (95% CI)", "setting": "No T2DM", "value": "0.85 (0.66-1.10)"}, {"measurement": "Death from any cause, Hazard Ratio (95% CI)", "setting": "No T2DM", "value": "0.88 (0.70-1.12)"}, {"measurement": "Hospitalization for heart failure or an urgent heart failure visit, Hazard Ratio (95% CI)", "setting": "No T2DM", "value": "0.62 (0.48-0.80)"}, {"measurement": "Hospitalization for heart failure, Hazard Ratio (95% CI)", "setting": "No T2DM", "value": "0.63 (0.48-0.81)"}, {"measurement": "Primary composite outcome, Hazard Ratio (95% CI)", "setting": "No T2DM", "value": "0.73 (0.60 to 0.88)"}, {"measurement": "Urgent heart failure visit, Hazard Ratio (95% CI)", "setting": "No T2DM", "value": "0.25 (0.07-0.89)"}, {"measurement": "Worsening renal function (composite), Hazard Ratio (95% CI)", "setting": "No T2DM", "value": "0.67 (0.30-1.49)"}, {"measurement": "Total number of (first and recurrent) heart failure hospitalizations and cardiovascular death, rate ratio (95% CI)", "setting": "No T2DM", "value": "0.73 (0.59, 0.91)"}, {"measurement": "Cardiovascular death or hospitalization for heart failure, Hazard Ratio (95% CI)", "setting": "T2DM", "value": "0.75 (0.63-0.90)"}, {"measurement": "Cardiovascular death, Hazard Ratio (95% CI)", "setting": "T2DM", "value": "0.79 (0.63-1.01)"}, {"measurement": "Death from any cause, Hazard Ratio (95% CI)", "setting": "T2DM", "value": "0.78 (0.63-0.97)"}, {"measurement": "Hospitalization for heart failure or an urgent heart failure visit, Hazard Ratio (95% CI)", "setting": "T2DM", "value": "0.77 (0.61-0.95)"}, {"measurement": "Hospitalization for heart failure, Hazard Ratio (95% CI)", "setting": "T2DM", "value": "0.76 (0.61-0.95)"}, {"measurement": "Primary composite outcome, Hazard Ratio (95% CI)", "setting": "T2DM", "value": "0.75 (0.63 to 0.90)"}, {"measurement": "Urgent heart failure visit, Hazard Ratio (95% CI)", "setting": "T2DM", "value": "0.62 (0.24-1.59)"}, {"measurement": "Worsening renal function (composite), Hazard Ratio (95% CI)", "setting": "T2DM", "value": "0.73 (0.39-1.34)"}, {"measurement": "Total number of (first and recurrent) heart failure hospitalizations and cardiovascular death, rate ratio (95% CI)", "setting": "T2DM", "value": "0.77 (0.63, 0.94)"}, {"measurement": "Cardiovascular death or hospitalization for heart failure, Hazard Ratio (95% CI)", "setting": "all patients", "value": "0.75 (0.65-0.85)"}, {"measurement": "Cardiovascular death, Hazard Ratio (95% CI)", "setting": "all patients", "value": "0.82 (0.69-0.98)"}, {"measurement": "Death from any cause, Hazard Ratio (95% CI)", "setting": "all patients", "value": "0.83 (0.71-0.97)"}, {"measurement": "Hospitalization for heart failure or an urgent heart failure visit, Hazard Ratio (95% CI)", "setting": "all patients", "value": "0.70 (0.59-0.83)"}, {"measurement": "Hospitalization for heart failure, Hazard Ratio (95% CI)", "setting": "all patients", "value": "0.70 (0.59-0.83)"}, {"measurement": "Primary composite outcome, Hazard Ratio (95% CI)", "setting": "all patients", "value": "0.74 (0.65-0.85)"}, {"measurement": "Urgent heart failure visit, Hazard Ratio (95% CI)", "setting": "all patients", "value": "0.43 (0.20-0.90)"}, {"measurement": "Worsening renal function (composite), Hazard Ratio (95% CI)", "setting": "all patients", "value": "0.71 (0.44-1.16)"}, {"measurement": "Total number of (first and recurrent) heart failure hospitalizations and cardiovascular death, rate ratio (95% CI)", "setting": "all patients", "value": "0.75 (0.65-0.88)‡"}, {"measurement": "Total number of (first and recurrent) heart failure hospitalizations and cardiovascular death, rate ratio (95% CI)", "setting": "[2]", "value": 0.75}, {"measurement": "Cardiovascular death or hospitalization for heart failure, Hazard Ratio (95% CI)", "setting": "[2]", "value": 0.75}, {"measurement": "Cardiovascular death, Hazard Ratio (95% CI)", "setting": "[2]", "value": 0.82}, {"measurement": "Death from any cause, Hazard Ratio (95% CI)", "setting": "[2]", "value": 0.83}, {"measurement": "Hospitalization for heart failure, Hazard Ratio (95% CI)", "setting": "[2]", "value": 0.70}, {"measurement": "Primary composite outcome, Hazard Ratio (95% CI)", "setting": "[2]", "value": 0.74}, {"measurement": "Worsening renal function (composite), Hazard Ratio (95% CI)", "setting": "[2]", "value": 0.71}, {"measurement": "HR (95% CI) for primary outcome of CV death or worsening HF", "setting": "highest tertile of baseline KCCQ-TSS (>87.5)", "value": "0.62 (0.46-0.83)"}, {"measurement": "HR (95% CI) for primary outcome of CV death or worsening HF", "setting": "lowest tertile of baseline KCCQ-TSS (≤65.6)", "value": "0.70 (0.57-0.86)"}, {"measurement": "HR (95% CI) for primary outcome of CV death or worsening HF", "setting": "middle tertile of baseline KCCQ-TSS (65.7-87.5)", "value": "0.77 (0.61-0.98)"}, {"measurement": "numbers of patients who would need to have been treated to prevent one primary event", "setting": "over the duration of the trial", "value": 21}, {"measurement": "hazard ratio for the primary outcome", "setting": "patients without diabetes, highest third of glycated hemoglobin (≥6.0%), dapagliflozin versus placebo", "value": "0.72 (0.52, 1.00)"}, {"measurement": "hazard ratio for the primary outcome", "setting": "patients without diabetes, lowest third of glycated hemoglobin (≤5.6%), dapagliflozin versus placebo", "value": "0.74 (95% CI 0.53, 1.04)"}, {"measurement": "hazard ratio for the primary outcome", "setting": "patients without diabetes, middle third of glycated hemoglobin (>5.6-<6.0%), dapagliflozin versus placebo", "value": "0.71 (0.48, 1.04)"}, {"measurement": "hazard ratio for the primary outcome", "setting": "post hoc subgroup: patients not taking sacubitril-valsartan, dapagliflozin to placebo", "value": 0.74}, {"measurement": "hazard ratio for the primary outcome", "setting": "post hoc subgroup: patients taking sacubitril-valsartan at baseline, dapagliflozin to placebo", "value": 0.75}]}]}
